{"source": "patent US4530998A", "about": "“2'-Deoxyoxanosine” (Zaidan Hojin Biseibutsu Kagaku KenkyuKai, priority 1983, dated 1985)", "key": {"[1]": {"assay": "Stability under basic conditions", "type": "physicochemical", "settings": "in words"}, "[2]": {"system": "mice", "assay": "Acute toxicity (LD50) in mice", "type": "in vivo", "settings": "i.v., in words"}, "[3]": {"assay": "Acute toxicity (LD50) in mice", "type": "in vivo", "settings": "mouse, in vivo, iv"}, "[4]": {"system": "leukemia L-1210 cells", "assay": "Cytotoxicity, growth inhibition of leukemia L-1210 cells", "type": "cell-based"}, "[5]": {"system": "gram-negative bacteria", "assay": "Antibacterial (growth-inhibitory) activity, gram-negative bacteria", "type": "cell-based", "settings": "in words", "description": "(§1) Calcd.: C:44.91, H:4.47, N:20.75, Found: C:44.78, H:4.51, N:20.89, Molecular formula: C10 H12 N4 O5 Molecular weight: 268. 2'-Deoxyoxanosine in accordance with the present invention had the following antibacterial spectrum on 0.5% peptone agar."}, "[6]": {"system": "gram-positive bacteria", "assay": "Antibacterial (growth-inhibitory) activity, gram-positive bacteria", "type": "cell-based", "settings": "in words", "description": "as §1"}, "[7]": {"system": "Proteus rettgeri GN311", "assay": "Antibacterial spectrum (MIC) on 0.5% peptone agar", "type": "cell-based", "settings": "Providencia rettgeri", "description": "as §1\n(§2) Antibacterial spectrum of 2'-deoxyoxanosine"}, "[8]": {"system": "Escherichia coli NIHJ", "assay": "Antibacterial spectrum (MIC) on 0.5% peptone agar", "type": "cell-based", "description": "as §1, §2"}, "[9]": {"system": "Staphylococcus aureus FDA209P", "assay": "Antibacterial spectrum (MIC) on 0.5% peptone agar", "type": "cell-based", "description": "as §1, §2"}, "[10]": {"system": "Corynebacterium bovis 1810", "assay": "Antibacterial spectrum (MIC) on 0.5% peptone agar", "type": "cell-based", "description": "as §1, §2"}, "[11]": {"system": "Proteus vulgaris OX19", "assay": "Antibacterial spectrum (MIC) on 0.5% peptone agar", "type": "cell-based", "description": "as §1, §2"}, "[12]": {"system": "Mycobacterium 607", "assay": "Antibacterial spectrum (MIC) on 0.5% peptone agar", "type": "cell-based", "description": "as §1, §2"}, "[13]": {"system": "Salmonella enteritidis 1891", "assay": "Antibacterial spectrum (MIC) on 0.5% peptone agar", "type": "cell-based", "settings": "Salmonella enterica", "description": "as §1, §2"}, "[14]": {"system": "Proteus rettgeri GN466", "assay": "Antibacterial spectrum (MIC) on 0.5% peptone agar", "type": "cell-based", "settings": "Providencia rettgeri", "description": "as §1, §2"}, "[15]": {"system": "Serratia marcescens", "assay": "Antibacterial spectrum (MIC) on 0.5% peptone agar", "type": "cell-based", "description": "as §1, §2"}, "[16]": {"system": "Candida albicans 3147", "assay": "Antibacterial spectrum (MIC) on 0.5% peptone agar", "type": "cell-based", "description": "as §1, §2"}, "[17]": {"system": "Shigella flexneri 4bJS11811", "assay": "Antibacterial spectrum (MIC) on 0.5% peptone agar", "type": "cell-based", "description": "as §1, §2"}, "[18]": {"system": "Pseudomonas aeruginosa A3", "assay": "Antibacterial spectrum (MIC) on 0.5% peptone agar", "type": "cell-based", "description": "as §1, §2"}, "[19]": {"system": "Shigella dysenteriae JS11910", "assay": "Antibacterial spectrum (MIC) on 0.5% peptone agar", "type": "cell-based", "description": "as §1, §2"}, "[20]": {"system": "Shigella sonnei JS11746", "assay": "Antibacterial spectrum (MIC) on 0.5% peptone agar", "type": "cell-based", "description": "as §1, §2"}, "[21]": {"system": "Sarcina luteus PCI1001", "assay": "Antibacterial spectrum (MIC) on 0.5% peptone agar", "type": "cell-based", "description": "as §1, §2"}, "[22]": {"system": "Bacillus subtilis NRRLB-558", "assay": "Antibacterial spectrum (MIC) on 0.5% peptone agar", "type": "cell-based", "settings": "NRRLB558", "description": "as §1, §2"}, "[23]": {"system": "Proteus mirabilis IFM OM-9", "assay": "Antibacterial spectrum (MIC) on 0.5% peptone agar", "type": "cell-based", "settings": "IFMOM9", "description": "as §1, §2"}, "[24]": {"system": "Bacillus subtilis PCI219", "assay": "Antibacterial spectrum (MIC) on 0.5% peptone agar", "type": "cell-based", "description": "as §1, §2"}, "[25]": {"system": "Salmonella typhi T-63", "assay": "Antibacterial spectrum (MIC) on 0.5% peptone agar", "type": "cell-based", "settings": "Salmonella enterica", "description": "as §1, §2"}, "[26]": {"system": "Escherichia coli K-12", "assay": "Antibacterial spectrum (MIC) on 0.5% peptone agar", "type": "cell-based", "settings": "K12", "description": "as §1, §2"}, "[27]": {"system": "Microcuccus flavus FDA16", "assay": "Antibacterial spectrum (MIC) on 0.5% peptone agar", "type": "cell-based", "description": "as §1, §2"}, "[28]": {"system": "Staphylococcus aureus Simth", "assay": "Antibacterial spectrum (MIC) on 0.5% peptone agar", "type": "cell-based", "description": "as §1, §2"}, "[29]": {"system": "Escherichia coli ML1628", "assay": "Antibacterial spectrum (MIC) on 0.5% peptone agar", "type": "cell-based", "settings": "Escherichia coli ML1628 (multiple resistant strain)", "description": "as §1, §2"}, "[30]": {"system": "Klebsiella pneumoniae PCI602", "assay": "Antibacterial spectrum (MIC) on 0.5% peptone agar", "type": "cell-based", "description": "as §1, §2"}}}
{"smiles": "Nc1nc2c(ncn2[C@H]2C[C@H](O)[C@@H](CO)O2)c(=O)o1", "note": "[2'-deoxyoxanosine]", "values": [{"measurement": "stability", "setting": "[1]", "result": "relatively unstable under basic conditions"}, {"measurement": "acute toxicity compared with known antibiotics similar in structure to nucleic acids", "setting": "[2]", "result": "lower toxicity than that of various known antibiotics similar in structure to nucleic acids"}, {"measurement": "LD50", "setting": "[3]", "result": 200, "unit": "mg/kg"}, {"measurement": "IC50", "setting": "[4]; Mus musculus, L1210, read-out: IC50, the concentration inhibiting growth in 50% of leukemia L-1210 cells", "result": 0.15, "unit": "µg/mL"}, {"measurement": "inhibition of growth of leukemia L-1210 cells", "setting": "[4]; in words", "result": "exhibited the action to inhibit the growth of leukemia L-1210 cells"}, {"measurement": "antibacterial / growth-inhibitory activity", "setting": "[5]", "result": "relatively high growth-inhibitory activity"}, {"measurement": "antibacterial / growth-inhibitory activity", "setting": "[5]; listed as 2'-Deoxyoxanosine", "result": "excellent antibacterial activity against gram-negative bacteria"}, {"measurement": "growth-inhibitory activity", "setting": "[6]", "result": "did not show this activity against gram-positive bacteria"}, {"measurement": "MIC", "setting": "[7]", "result": 12.5, "unit": "µg/mL"}, {"measurement": "MIC", "setting": "[8]", "result": 12.5, "unit": "µg/mL"}, {"measurement": "MIC", "setting": "[9]", "result": "> 100", "unit": "µg/mL"}, {"measurement": "MIC", "setting": "[10]", "result": "> 100", "unit": "µg/mL"}, {"measurement": "MIC", "setting": "[11]", "result": "< 0.2", "unit": "µg/mL"}, {"measurement": "MIC", "setting": "[12]", "result": "> 100", "unit": "µg/mL"}, {"measurement": "MIC", "setting": "[13]", "result": "> 100", "unit": "µg/mL"}, {"measurement": "MIC", "setting": "[14]", "result": 25, "unit": "µg/mL"}, {"measurement": "MIC", "setting": "[15]", "result": "> 100", "unit": "µg/mL"}, {"measurement": "MIC", "setting": "[16]", "result": "> 100", "unit": "µg/mL"}, {"measurement": "MIC", "setting": "[17]", "result": 1.56, "unit": "µg/mL"}, {"measurement": "MIC", "setting": "[18]", "result": "> 100", "unit": "µg/mL"}, {"measurement": "MIC", "setting": "[19]", "result": 1.56, "unit": "µg/mL"}, {"measurement": "MIC", "setting": "[20]", "result": 0.78, "unit": "µg/mL"}, {"measurement": "MIC", "setting": "[21]", "result": "> 100", "unit": "µg/mL"}, {"measurement": "MIC", "setting": "[22]", "result": "> 100", "unit": "µg/mL"}, {"measurement": "MIC", "setting": "[23]", "result": 6.25, "unit": "µg/mL"}, {"measurement": "MIC", "setting": "[24]", "result": "> 100", "unit": "µg/mL"}, {"measurement": "MIC", "setting": "[25]", "result": "> 100", "unit": "µg/mL"}, {"measurement": "MIC", "setting": "[26]", "result": 0.78, "unit": "µg/mL"}, {"measurement": "MIC", "setting": "[27]", "result": "> 100", "unit": "µg/mL"}, {"measurement": "MIC", "setting": "[28]", "result": "> 100", "unit": "µg/mL"}, {"measurement": "MIC", "setting": "[29]", "result": 3.12, "unit": "µg/mL"}, {"measurement": "MIC", "setting": "[30]", "result": "> 100", "unit": "µg/mL"}]}
